“Also recorded” adds a separate entry of the source. Read-outs that look alike come from different tables or passages of the source.
Legend:
[1] = system: extracellular CA in intact hypoxic MDA-MB-231 cells; settings: 1 μM; cited from earlier work
A549 cells = experiment: alamarBlue cell viability assay; assay type: cell-based; settings: Homo sapiens, A549, 72 h
Procedure: (§3) Cytotoxicity of inhibitors was determined by the alamarBlue® cell viability assay (Life Technologies). […] Briefly, cells were seeded in 96-well plates and allowed to attach overnight in normoxia. […] After 72 h, cells were incubated with 10% alamarBlue® for 2 h under normoxia at 37° C. The fluorescence signal was measured using the multi-mode microplate reader (FLUOstar® Omega, BMG Labtech) at 580 nm (excitation wavelength 540 nm). Response to treatments was quantified by evaluating EC50 values (concentration of inhibitor that leads to half-maximum viability response determined by Hill fit).

[2] = system: 4 investigated cell lines; experiment: Extracellular acidification (pH) assay, cell line panel; assay type: cell-based, human; settings: 50 μM, hypoxia 0.2% O2, 72 h
Procedure: HeLa, H460, MDA-MB-231, and AsPC-1 cells were cultured in DMEM (Lonza) supplemented with 10% FBS (Lonza), whereas A549 cells were grown in-house made analogous medium differing only by a lower amount of sodium bicarbonate (final concentration 10 mM). Cell densities for each cell line were optimized to get ~100% confluence at the end of experiment under normoxic and hypoxic (0.2% O2) conditions upon vehicle (0.05% DMSO) treatment. Such conditions were necessary to obtain the highest possible level of CA IX-dependent extracellular acidification. Cells were plated in 6 cm dishes and allowed to attach overnight in normoxia. […] Results are shown as a difference between the pH of medium in the control plate (without seeded cells) and the pH of medium in the targeted plate (cells exposed to the compound or vehicle).

[3] = system: CA activity in hypoxic HeLa CA IX KO cells; experiment: CA catalytic activity via MS gas-analysis, CA IX knockout cells; assay type: cell-based, human; settings: both HeLa CA IX KO lines
Procedure: The reaction sequence of ^18O loss from ^13C^18O^18O (m/z = 49) over the intermediate product ^13C^18O^16O (m/z = 47) and the end product ^13C^16O^16O (m/z = 45) was monitored with a quadrupole mass spectrometer (OmniStar GSD 320; Pfeiffer Vacuum, Asslar, Germany). The relative ^18O enrichment was calculated from the measured 45, 47, and 49 m/z abundance as a function of time according to: log enrichment = log (49×100/(49+47+45)). For the calculation of CA activity, the rate of ^18O depletion was obtained from the linear slope of the log enrichment over the time, using OriginPro 8.6 (OriginLab Corporation). The rate was compared with the corresponding rate of the non-catalyzed reaction. Enzyme activity in units (U) was calculated from these two values as defined by Badger and Price [59]. […] For every measurement, the non-catalyzed reaction was determined for 6 min in the presence of inhibitor, before cell suspension was added to the measuring cuvette and the catalyzed reaction was determined for 8 min. […] IC50 values were determined by Hill equation using OriginPro 8.6. To investigate specificity of the inhibitors in HeLa WT and HeLa CA IX KO cells, the non-catalyzed reaction was determined for 6 min in the absence of inhibitor, before a suspension of 5 × 10^6 cells was added to the measuring cuvette. […]

HeLa cells [4] = experiment: Extracellular acidification (pH) assay; assay type: cell-based, human; settings: for hypoxia-induced extracellular acidification: hypoxia 0.2% O2, 72 h, 5–50 μM; for effect on extracellular acidification under normoxia: normoxia 21% O2, 72 h
H460 cells [5] = experiment: alamarBlue cell viability assay; assay type: cell-based; settings: Homo sapiens, NCI-H460, 72 h
Procedure: as §3

CA III = target: T1, CA III (Homo sapiens, UniProt P07451); experiment: Fluorescent thermal shift assay (FTSA); assay type: binding; settings: pH 7.0, 37° C
T1 construct: 12 recombinant catalytic domains of human active CA isoforms as determined by FTSA
Procedure: (§1) The binding affinity of synthesized compounds to recombinant human CAs was measured by the fluorescent thermal shift assay (FTSA) where the thermal stabilization of the protein by the compound was determined by following the fluorescence dependence on temperature at various added compound concentrations. The melting temperature (Tm) of CA was measured using the Corbett Rotor-Gene 6000 instrument (QIAGEN Rotor-Gene Q, excitation at 365 ± 20 nm, emission detection at 460 ± 15 nm). The protein was heated from 25 to 99° C at a rate of 1° C/min and the fluorescence change of the solvatochromic dye 8-anilino-1-naphthalene sulfonate (ANS) was followed. The samples consisted of 5–10 μM CA, 0–200 μM ligand, 50 μM ANS, and 50 mM sodium phosphate buffer containing 100 mM NaCl at pH 7.0, with the final DMSO concentration of 2% (v/v). Protein unfolding profiles and the melting temperatures were determined at each ligand concentration while recording extrinsic fluorescence of ANS. Data analysis was performed as previously described. All experiments were repeated at least twice.

CA VB = target: T2, CA VB (Homo sapiens, UniProt Q9Y2D0); experiment: Fluorescent thermal shift assay (FTSA); assay type: binding; settings: pH 7.0, 37° C
T2 construct: 12 recombinant catalytic domains of human active CA isoforms as determined by FTSA
Procedure: as §1

CA XIII = target: T3, CA XIII (Homo sapiens, UniProt Q8N1Q1); experiment: Fluorescent thermal shift assay (FTSA); assay type: binding; settings: pH 7.0, 37° C
T3 construct: 12 recombinant catalytic domains of human active CA isoforms as determined by FTSA
Procedure: as §1

CA IX [6] = target: T4, CA IX (Homo sapiens, UniProt Q16790); experiment: Fluorescent thermal shift assay (FTSA); assay type: binding; settings: pH 7.0, 37° C
T4 construct: 12 recombinant catalytic domains of human active CA isoforms as determined by FTSA
Procedure: as §1

CA XIV = target: T5, CA XIV (Homo sapiens, UniProt Q9ULX7); experiment: Fluorescent thermal shift assay (FTSA); assay type: binding; settings: pH 7.0, 37° C
T5 construct: 12 recombinant catalytic domains of human active CA isoforms as determined by FTSA
Procedure: as §1

CA VI = target: T6, CA VI (Homo sapiens, UniProt P23280); experiment: Fluorescent thermal shift assay (FTSA); assay type: binding; settings: pH 7.0, 37° C
T6 construct: 12 recombinant catalytic domains of human active CA isoforms as determined by FTSA
Procedure: as §1

CA II = target: T7, CA II (Homo sapiens, UniProt P00918); experiment: Fluorescent thermal shift assay (FTSA); assay type: binding; settings: pH 7.0, 37° C
T7 construct: 12 recombinant catalytic domains of human active CA isoforms as determined by FTSA
Procedure: as §1

CA VII = target: T8, CA VII (Homo sapiens, UniProt P43166); experiment: Fluorescent thermal shift assay (FTSA); assay type: binding; settings: pH 7.0, 37° C
T8 construct: 12 recombinant catalytic domains of human active CA isoforms as determined by FTSA
Procedure: as §1

CA XII [7] = target: T9, CA XII (Homo sapiens, UniProt O43570); experiment: Fluorescent thermal shift assay (FTSA); assay type: binding; settings: pH 7.0, 37° C
T9 construct: 12 recombinant catalytic domains of human active CA isoforms as determined by FTSA
Procedure: as §1

CA IV = target: T10, CA IV (Homo sapiens, UniProt P22748); experiment: Fluorescent thermal shift assay (FTSA); assay type: binding; settings: pH 7.0, 37° C
T10 construct: 12 recombinant catalytic domains of human active CA isoforms as determined by FTSA
Procedure: as §1

CA VA = target: T11, CA VA (Homo sapiens, UniProt P35218); experiment: Fluorescent thermal shift assay (FTSA); assay type: binding; settings: pH 7.0, 37° C
T11 construct: 12 recombinant catalytic domains of human active CA isoforms as determined by FTSA
Procedure: as §1

CA I = target: T12, CA I (Homo sapiens, UniProt P00915); experiment: Fluorescent thermal shift assay (FTSA); assay type: binding; settings: pH 7.0, 37° C
T12 construct: 12 recombinant catalytic domains of human active CA isoforms as determined by FTSA
Procedure: as §1

H460 spheroids = experiment: Clonogenic cell survival assay, 3D spheroids; assay type: cell-based, human; settings: non-hypoxic (day 4) versus hypoxic (day 11) H460 spheroids, 5–15 μM, 24 h
Procedure: Clonogenic survival of HeLa cell monolayers was evaluated using cell densities applied in the extracellular acidification assay to determine the effect of inhibitors on the clonogenic cell survival while having the same acidification conditions. […] Then cells were trypsinized, reseeded in triplicate with known cell densities and allowed to form colonies for 14 days. […] Single cell suspensions were prepared and cells were plated in triplicate with known cell densities and allowed to form colonies for 14 days. […] Surviving fraction was normalized to vehicle (DMSO). To prepare plates for the growth of attachment-free H460 spheroids, autoclaved 1.5% w/v agarose (Sigma-Aldrich) was dispensed in the inner 60 wells of 96-well plates (50 μL/well) and left for polymerization at room temperature for 30 min. H460 cells were plated in modified 96-well plates to the surface of agarose menisci with a density of 500 cells/well. The DMEM was refreshed every two days. After 7 or 11 days in culture, spheroids were incubated with 20 μg/mL pimonidazole (PIMO, Hypoxyprobe-1, HP-1000, BioConnect) for 2 h at 37° C, collected and cryoconserved for immunofluorescence analysis (see below).

AsPC-1 cells [8] = experiment: alamarBlue cell viability assay; assay type: cell-based; settings: Homo sapiens, ASPC1, 48 h
Procedure: as §3

CA IX [9] = target: T4, CA IX; experiment: Stopped-flow CO2 hydration inhibition assay (SFA); assay type: biochemical; settings: pH 7.5, 25° C, value in parentheses
Procedure: (§2) The enzymatic activity of carbonic anhydrase isoforms and their inhibition was determined by the stopped-flow CO2 hydration assay where the formed acid was followed by the absorbance change of a pH indicator. The Applied Photophysics SX.18MV-R stopped-flow spectrometer was used to measure the absorbance change of Phenol-Red pH indicator at 557 nm. Saturated CO2 solution was prepared by bubbling the CO2 gas in MilliQ water at 25° C for 1 h. Experiments were performed at 25° C using 25 mM Hepes buffer containing 50 mM NaCl (pH 7.5), 0–10 μM compound with the final 0.4% (v/v) DMSO concentration. The final enzyme concentration was 10 nM for CA IX and 20 nM for CA XII. Raw curves of absorbance change were analyzed using Origin 8.1 (OriginLab Corporation) and the slope values were used to evaluate the rates of CO2 hydration. Spontaneous CO2 hydration rate was used as a zero value, while the CA catalyzed reaction rate - as a maximum value.

CA XII [10] = target: T9, CA XII; experiment: Stopped-flow CO2 hydration inhibition assay (SFA); assay type: biochemical; settings: pH 7.5, 25° C, value in parentheses
Procedure: as §2

AsPC-1 cells [11] = experiment: Extracellular acidification (pH) assay; assay type: cell-based, human; settings: AsPC-1, hypoxia 0.2% O2, 72 h
HeLa cells [12] = experiment: alamarBlue cell viability assay; assay type: cell-based, human; settings: 72 h; for EC50: Homo sapiens, HeLa
Procedure: as §3

MDA-MB-231 cells = experiment: alamarBlue cell viability assay; assay type: cell-based; settings: Homo sapiens, MDA-MB-231, 72 h
Procedure: as §3

H460 cells [13] = experiment: Extracellular acidification (pH) assay; assay type: cell-based, human; settings: H460, hypoxia 0.2% O2, 72 h
[14] = H460, 0.2% O2 (hypoxia), read-out: EC50
[15] = H460, 21% O2 (normoxia), read-out: EC50
[16] = 0.2% O2 (hypoxia), read-out: EC50
[17] = 21% O2 (normoxia), read-out: EC50

T9 sequence (O43570 30-289 limits assumed): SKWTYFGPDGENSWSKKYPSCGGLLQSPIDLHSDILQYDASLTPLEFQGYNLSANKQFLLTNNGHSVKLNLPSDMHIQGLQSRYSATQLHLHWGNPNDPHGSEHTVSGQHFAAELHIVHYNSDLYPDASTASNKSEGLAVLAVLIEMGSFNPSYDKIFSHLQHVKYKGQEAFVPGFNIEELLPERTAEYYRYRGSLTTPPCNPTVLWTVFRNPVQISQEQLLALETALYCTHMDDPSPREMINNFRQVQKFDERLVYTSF
T3 sequence (Q8N1Q1 4-261 limits assumed): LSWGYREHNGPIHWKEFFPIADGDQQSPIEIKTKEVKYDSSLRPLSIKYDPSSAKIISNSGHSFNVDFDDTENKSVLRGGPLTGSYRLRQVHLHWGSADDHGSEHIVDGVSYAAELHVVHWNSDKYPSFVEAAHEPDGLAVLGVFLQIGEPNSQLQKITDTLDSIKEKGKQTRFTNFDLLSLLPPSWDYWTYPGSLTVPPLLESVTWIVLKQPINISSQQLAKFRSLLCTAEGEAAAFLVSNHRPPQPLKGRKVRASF
T12 sequence (P00915 4-261 limits assumed): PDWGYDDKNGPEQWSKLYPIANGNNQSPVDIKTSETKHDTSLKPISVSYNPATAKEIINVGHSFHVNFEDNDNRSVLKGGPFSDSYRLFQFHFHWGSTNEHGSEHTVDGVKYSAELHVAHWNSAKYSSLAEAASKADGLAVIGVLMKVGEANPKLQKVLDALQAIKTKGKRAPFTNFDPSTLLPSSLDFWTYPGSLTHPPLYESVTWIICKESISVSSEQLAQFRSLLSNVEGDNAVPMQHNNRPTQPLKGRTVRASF
T1 sequence (P07451 3-259 limits assumed): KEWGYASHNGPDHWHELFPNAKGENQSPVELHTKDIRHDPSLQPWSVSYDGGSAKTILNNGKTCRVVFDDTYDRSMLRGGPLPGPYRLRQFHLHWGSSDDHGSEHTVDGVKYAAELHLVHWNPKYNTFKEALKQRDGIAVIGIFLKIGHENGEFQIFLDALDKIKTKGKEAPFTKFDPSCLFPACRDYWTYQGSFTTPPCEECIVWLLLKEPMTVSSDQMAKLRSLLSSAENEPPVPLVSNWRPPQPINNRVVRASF
T6 sequence (P23280 21-278 limits assumed): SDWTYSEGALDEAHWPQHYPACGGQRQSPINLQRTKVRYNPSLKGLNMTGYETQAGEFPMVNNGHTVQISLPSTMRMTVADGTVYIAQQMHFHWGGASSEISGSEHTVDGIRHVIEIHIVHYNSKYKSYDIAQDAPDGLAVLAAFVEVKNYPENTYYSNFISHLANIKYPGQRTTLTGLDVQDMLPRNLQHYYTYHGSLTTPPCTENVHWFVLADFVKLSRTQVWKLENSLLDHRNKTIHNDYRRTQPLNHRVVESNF
T5 sequence (Q9ULX7 20-278 limits assumed): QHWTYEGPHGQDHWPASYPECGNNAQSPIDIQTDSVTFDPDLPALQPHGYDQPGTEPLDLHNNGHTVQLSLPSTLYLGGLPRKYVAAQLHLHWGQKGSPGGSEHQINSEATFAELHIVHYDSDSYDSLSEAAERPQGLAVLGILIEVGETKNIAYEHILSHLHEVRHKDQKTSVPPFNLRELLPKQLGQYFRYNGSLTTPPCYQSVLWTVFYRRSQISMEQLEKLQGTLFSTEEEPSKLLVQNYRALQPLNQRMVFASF
T2 sequence (Q9Y2D0 37-296 limits assumed): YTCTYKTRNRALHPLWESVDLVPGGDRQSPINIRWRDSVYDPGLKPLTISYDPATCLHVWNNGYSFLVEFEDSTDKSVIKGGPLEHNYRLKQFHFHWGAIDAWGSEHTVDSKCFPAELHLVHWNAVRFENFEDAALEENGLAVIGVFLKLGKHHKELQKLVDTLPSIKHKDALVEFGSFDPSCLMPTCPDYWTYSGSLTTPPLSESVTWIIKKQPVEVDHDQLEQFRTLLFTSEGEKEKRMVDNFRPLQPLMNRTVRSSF
T11 sequence (P35218 39-296 limits assumed): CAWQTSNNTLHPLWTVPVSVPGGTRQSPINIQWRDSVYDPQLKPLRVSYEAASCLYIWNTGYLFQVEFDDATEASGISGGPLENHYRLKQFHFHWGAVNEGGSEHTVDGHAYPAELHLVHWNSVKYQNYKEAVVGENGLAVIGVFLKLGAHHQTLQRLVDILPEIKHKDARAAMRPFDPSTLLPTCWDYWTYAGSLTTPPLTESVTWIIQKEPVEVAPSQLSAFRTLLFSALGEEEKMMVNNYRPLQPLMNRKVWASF
T8 sequence (P43166 5-262 limits assumed): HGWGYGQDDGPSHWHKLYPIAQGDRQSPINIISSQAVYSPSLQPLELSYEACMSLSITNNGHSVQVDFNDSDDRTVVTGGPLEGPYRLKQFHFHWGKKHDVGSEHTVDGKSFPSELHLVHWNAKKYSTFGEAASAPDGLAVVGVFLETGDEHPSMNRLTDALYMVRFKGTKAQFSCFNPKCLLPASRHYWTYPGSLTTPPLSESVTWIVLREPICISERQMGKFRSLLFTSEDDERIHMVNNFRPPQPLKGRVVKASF
T10 sequence (P22748 21-285 limits assumed): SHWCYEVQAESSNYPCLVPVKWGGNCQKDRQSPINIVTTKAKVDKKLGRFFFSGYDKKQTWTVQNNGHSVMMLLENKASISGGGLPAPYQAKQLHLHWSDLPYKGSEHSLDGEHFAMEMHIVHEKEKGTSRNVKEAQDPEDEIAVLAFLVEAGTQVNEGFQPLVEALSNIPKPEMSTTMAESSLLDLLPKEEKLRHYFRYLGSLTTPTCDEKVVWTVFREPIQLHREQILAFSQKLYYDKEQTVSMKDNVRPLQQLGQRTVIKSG

SMILES: CC(=O)Nc1nnc(S(N)(=O)=O)s1 [acetazolamide]
- Extracellular CA activity [1]: significantly reduced

SMILES: NS(=O)(=O)c1c(F)c(F)c(SCCc2ccc(C(=O)O)cc2)c(F)c1NC1CCCCCCCCCCC1 [VR16-09, 4-(2-{[4-(Aminosulfonyl)-3-(cyclododecylamino)-2,5,6-tetrafluorophenyl]thio}ethyl)benzoic acid]
- EC50 (A549 cells; A549, 0.2% O2 (hypoxia), read-out: EC50): 76.7 ± 2.9 µM
- EC50 (A549 cells; A549, 21% O2 (normoxia), read-out: EC50): 17 ± 1 µM
- hypoxia-induced acidosis [2]: significantly reduced
- CA activity after addition of inhibitor ([3]; 300 nM): did not alter CA activity
- hypoxia-induced extracellular acidification (HeLa cells [4]): significantly (p < 0.05) reduced
- effect on extracellular acidification under normoxia (HeLa cells [4]): negligible
- EC50 (H460 cells [5]; [14]): 40 ± 9.6 µM
- EC50 (H460 cells [5]; [15]): 19.3 ± 3.6 µM
- Kd (CA III): ≥ 200 µM
- Kd (CA VB): 45 µM
- Kd (CA XIII): 0.02 µM
- Kd (CA IX [6]): 0.00016 µM
- Kd (CA XIV): 0.17 µM
- Kd (CA VI): ≥ 200 µM
- Kd (CA II): ≥ 200 µM
- Kd (CA VII): 37 µM
- Kd (CA XII [7]): 0.71 µM
- Kd (CA IV): ≥ 200 µM
- Kd (CA VA): ≥ 200 µM
- Kd (CA I): ≥ 200 µM
- clonogenic survival of cells derived from spheroids (H460 spheroids): hypoxia-dependent effect on clonogenic survival
- EC50 (AsPC-1 cells [8]; AsPC-1, 0.2% O2 (hypoxia), read-out: EC50): 160 ± 17 µM
- EC50 (AsPC-1 cells [8]; AsPC-1, 21% O2 (normoxia), read-out: EC50): 153 ± 23 µM
- Ki (CA IX [9]): < 0.001 µM
- Ki (CA XII [10]): 0.1 µM
- hypoxia-induced acidosis (AsPC-1 cells [11]): increased
- EC50 (HeLa cells [12]; [16]): 40.8 ± 9.6 µM
- EC50 (HeLa cells [12]; [17]): 20.2 ± 4.3 µM
- EC50 (MDA-MB-231 cells; MDA-MB-231, 0.2% O2 (hypoxia), read-out: EC50): 84.2 ± 4.9 µM
- EC50 (MDA-MB-231 cells; MDA-MB-231, 21% O2 (normoxia), read-out: EC50): 74.2 ± 3.8 µM

SMILES: NS(=O)(=O)c1c(F)c(F)c(SCCO)c(F)c1NC1CCCCCCC1 [VD12-09]
- EC50 (A549 cells; A549, 0.2% O2 (hypoxia)): 98.8 ± 8.5 µM
- EC50 (A549 cells; A549, 21% O2 (normoxia)): 33.8 ± 2.5 µM
- CA activity after addition of inhibitor ([3]; 30 μM): did not alter CA activity
- hypoxia-induced extracellular acidification (HeLa cells [4]): significantly (p < 0.05) reduced
- effect on extracellular acidification under normoxia (HeLa cells [4]): negligible
- EC50 (H460 cells [5]; H460, 0.2% O2 (hypoxia)): 37 ± 7.6 µM
- EC50 (H460 cells [5]; H460, 21% O2 (normoxia)): 17.8 ± 2.2 µM
- EC50 (AsPC-1 cells [8]; AsPC-1, 0.2% O2 (hypoxia)): 83.3 ± 5.8 µM
- EC50 (AsPC-1 cells [8]; AsPC-1, 21% O2 (normoxia)): 100 ± 20 µM
- EC50 (HeLa cells [12]; 0.2% O2 (hypoxia)): 46.9 ± 7 µM
- EC50 (HeLa cells [12]; 21% O2 (normoxia)): 21.6 ± 4.1 µM
- EC50 (MDA-MB-231 cells; MDA-MB-231, 0.2% O2 (hypoxia)): 67.6 ± 7.1 µM
- EC50 (MDA-MB-231 cells; MDA-MB-231, 21% O2 (normoxia)): 55.4 ± 6.6 µM

SMILES: NS(=O)(=O)c1c(F)c(F)c(SCCc2ccc(C(=O)O)cc2)c(F)c1NC1CCCCCCC1 [VR16-10, 4-(2-{[4-(Aminosulfonyl)-3-(cyclooctylamino)-2,5,6-tetrafluorophenyl]thio}ethyl)benzoic acid]
- EC50 (H460 cells [5]; [14]): > 150 µM
- EC50 (H460 cells [5]; [15]): 83.3 ± 15.3 µM
- Kd (CA III): ≥ 200 µM
- Kd (CA VB): 0.1 µM
- Kd (CA XIII): 0.04 µM
- Kd (CA IX [6]): 0.0002 µM
- Kd (CA XIV): 0.17 µM
- Kd (CA VI): 26.3 µM
- Kd (CA II): 1 µM
- Kd (CA VII): 0.1 µM
- Kd (CA XII [7]): 0.37 µM
- Kd (CA IV): 1.82 µM
- Kd (CA VA): 5 µM
- Kd (CA I): 5 µM
- Ki (CA IX [9]): < 0.001 µM
- hypoxia-induced extracellular acidification (H460 cells [13]): Dose-dependent reduction; also recorded: smallest, albeit significant (p < 0.05), impact
- EC50 (HeLa cells [12]; [16]): > 150 µM
- EC50 (HeLa cells [12]; [17]): 93.3 ± 5.8 µM
- Cytotoxic ratio (CR) of selectivity to hypoxia (HeLa cells [12]; human, HeLa cells): > 0.62
